Each structure is given as a SMILES string.

The test relates to A549 human lung carcinoma cells. The experiment in a line: Growth of A549 cells (SRB). It counts as cell-based. Here is the method: The following assay measures growth rates for A549 cells. The purpose of the assay is to determine the effects of compounds on the growth of A549 human lung carcinoma cells. A549 cells are readily accessible from commercial sources, such as ATCC (CCL185).
• 96-well flat bottom sterile plates • 96-well round bottom sterile plates • sterile 25 mL or 100 mL reservoir • pipets, multi-channel pipetman • sterile pipet tips • sterile 15 mL and 50 mL tubes Reagents: • 0.4% SRB in 1% acetic acid • 10 mM Tris base • 10% TCA • 1% acetic acid • sterile DMSO (Sigma) • compound in DMSO (100 mM or less stock solution) • Trypsin-EDTA (GIBCO BRL) Cell Line and Growth Medium: • A549 human lung carcinoma cells (ATCC CCL185) • 10% fetal calf serum in Ham's F12-K Protocol: Day 0: Cell Plating:
This part of assay is carried out in a laminar flow hood. • 1. Trypsinize cells. Transfer 200 μL of cell suspension to 10 mL of isotone. Count cells with a Coulter Counter. • 2. Dilute cells in growth medium to 20,000 cell/mL. Transfer 100 μL of cells to each well in a 96-well flat bottom plate to give 2000 cells/well. • 3. Use half of plate (4 rows) for each compound and quadruplicate wells for each compound concentration, and a set of 4 wells for medium control. • 4. Gently shake plates to allow for uniform attachment of the cells. • 5. Incubate the plates at 37° C. in a 10% CO2 incubator. Day 1: Addition of Compound:
This part of assay is carried out in a laminar flow hood. • 1. In a 96 well-round bottom plate, add 120 μL of growth medium containing 2×final %DMSO found in highest screening concentration of compound to columns 1 to 11. For example, if the highest screening concentration is 100 μM, and this is made from a 100 mM stock, 1×DMSO is 0.1%, so 2×DMSO is 0.2%. This plate is used to titrate out the compound, 4 rows per compound. • 2. In a sterile 15 mL tube, make a 2×solution of the highest screening concentration of compound in growth medium plus 2×DMSO. 1 mL per cell line is needed. The starting concentration of the compound is usually 100 μM but this concentration may vary depending upon the solubility of the compound. • 3. Transfer 240 μL of the 2×starting compound solution to quadruplicate wells in column 12 of the 96-well round bottom plate. Do 1:2 serial dilutions across the plate from right to left by transferring 120 μL from column 12 to column 11, column 11 to 10 and so on through column 2. Transfer 100 μL of compound dilutions, and 100 μL of medium in column 1, onto 100 μL medium on cells in corresponding wells of 96-well flat bottom plate. Total volume per well should be 200 μL. • 4. Return the plate to the incubator and incubate for 3 days. Day 5: Development of Assay
This part of assay is carried out on the bench. • 1. Aspirate or pour off medium. Add 200 μL cold 10% TCA to each well to fix cells. Incubate plate for at least 60 min. at 4° C. • 2. Discard TCA and rinse wells 5 times with tap water. Dry plates upside down on paper towels. • 3. Stain cells with 100 μL/well 0.4% SRB for 10 min. • 4. Pour off SRB and rinse wells 5 times with 1% acetic acid. Dry plates completely upside down on paper towels. • 5. Solubilize dye with 100 μL/well 10 mM Tris base for 5-10 min. on shaker. • 6. Read plates on Dynatech ELISA Plate Reader at 570 nm with reference at 630 nm.
Compound `Nc1nc(N)c2c(Oc3ccccc3)cccc2n1` [Compound A-1, 2,4-Diamino-5-phenoxyquinazoline] showed an IC50 of 15.9 µM. As for `Nc1nc(N)c2c(Oc3ccc(F)cc3)cccc2n1` [Compound A-7, 2,4-Diamino-5-(4-fluorophenoxy)quinazoline], the figure is 17.7 µM; as for `CC(C)(C)c1ccc(Oc2cccc3nc(N)nc(N)c23)cc1` [Compound A-8, 2,4-Diamino-5-(4-tert-butylphenoxy)quinazoline], 77.9 µM. `COc1ccccc1Oc1cccc2nc(N)nc(N)c12` [Compound A-22, 2,4-Diamino-5-(2-methoxyphenoxy)quinazoline] showed an IC50 of 26 µM. Compared with the last compound, the IC50 is about 3-fold lower.

The compound `COc1cccc(Oc2cccc3nc(N)nc(N)c23)c1` [Compound A-23, 2,4-Diamino-5-(3-methoxyphenoxy)quinazoline] showed an IC50 of 18 µM. `Nc1ncnc2cccc(Oc3ccc(OCc4ccccc4)cc3)c12` [Compound A-28, 4-Amino-5-(4-benzyloxyphenoxy)quinazoline] registered an IC50 of 32 µM.

What is called IC50 is the concentration that inhibits the measured activity by half. Read a high IC50 as lower potency.

Values taken from patent US6911446B2, “Methods of modulating serine/threonine protein kinase function with quinazoline-based compounds” (Sugen, Inc., priority 1997, dated 2005).
